Measured values taken from ChEMBL document CHEMBL4020831, “Discovery of GDC-0853: A Potent, Selective, and Noncovalent Bruton's Tyrosine Kinase Inhibitor in Early Clinical Development” (J Med Chem, 2018).
Calls of active or inactive are those of the source. The rule behind the calls is not given here.

Assays:
[1] = molecular target: ERBB2 (Homo sapiens, UniProt P04626); test: Inhibition of recombinant human cytoplasmic His-tagged ERBB2 expressed in baculovirus at 1 uM by Z'-LYTE assay
[2] = system: Homo sapiens; test: Toxicity in human at 250 mg administered bid for 14 days; details: in vivo, 336 h
[3] = Oral bioavailability in rat at 1 mg/kg administered as single dose via cassette dosing; assay type: ADME, organism-based; details: in vivo
[4] = system: Hepatocyte; test: Cytotoxicity against human primary hepatocytes assessed as reduction in cell viability; assay type: cell-based
[5] = Permeability across apical to basolateral in MDCK1 cells; assay type: ADME, cell-based, Canis lupus familiaris; details: dog, MDCK; read-out: permeability
[6] = Plasma clearance in rat at 0.2 mg/kg, iv or 1 mg/kg, po administered as single dose via cassette dosing; assay type: ADME, organism-based
[7] = Volume of distribution in rat at 0.2 mg/kg, iv or 1 mg/kg, po administered as single dose via cassette dosing; assay type: ADME, organism-based; details: in vivo
[8] = Half life in rat at 0.2 mg/kg, iv or 1 mg/kg, po administered as single dose via cassette dosing; assay type: ADME, organism-based; details: in vivo
[9] = molecular target: Nav1.5 (Homo sapiens, UniProt Q14524); test: Inhibition of human Nav1.5 expressed in CHO cells at 1 uM incubated for 3 to 5 mins by Qpatch clamp assay; assay type: cell-based; details: CHO cells expressing human Nav1.5
[10] = molecular target: Cav1.2 (Homo sapiens, UniProt Q13936); test: Inhibition of human Cav1.2 expressed in CHO cells at 10 uM incubated for 3 to 5 mins by Qpatch clamp assay; assay type: cell-based; details: CHO cells expressing human Cav1.2
[11] = system: Salmonella typhimurium; test: Genotoxicity in Salmonella typhimurium TA97a after 48 to 72 hrs in presence of liver S9 fraction by Ames test; assay type: toxicity; details: salmonella enterica subsp. enterica serovar typhimurium
[12] = system: Salmonella typhimurium; test: Genotoxicity in Salmonella typhimurium TA98 after 48 to 72 hrs in presence of liver S9 fraction by Ames test; assay type: toxicity; details: salmonella enterica subsp. enterica serovar typhimurium
[13] = system: Salmonella typhimurium; test: Genotoxicity in Salmonella typhimurium TA1535 after 48 to 72 hrs in presence of liver S9 fraction by Ames test; assay type: toxicity; details: salmonella enterica subsp. enterica serovar typhimurium
[14] = system: Escherichia coli; test: Genotoxicity in Escherichia coli WP2 harboring uvrA deletion mutant after 48 to 72 hrs in presence of liver S9 fraction by Ames test; assay type: toxicity
[15] = system: Salmonella typhimurium; test: Genotoxicity in Salmonella typhimurium TA98 after 48 to 72 hrs in absence of liver S9 fraction by Ames test; assay type: toxicity; details: salmonella enterica subsp. enterica serovar typhimurium
[16] = system: Salmonella typhimurium; test: Genotoxicity in Salmonella typhimurium TA1535 after 48 to 72 hrs in absence of liver S9 fraction by Ames test; assay type: toxicity; details: salmonella enterica subsp. enterica serovar typhimurium
[17] = system: Escherichia coli; test: Genotoxicity in Escherichia coli WP2 harboring uvrA deletion mutant after 48 to 72 hrs in absence of liver S9 fraction by Ames test; assay type: toxicity
[18] = system: PBL; test: Genotoxicity in human PBL assessed as induction of micronuclei at 500 ug/ml in presence of rat liver S9 fraction by cytochalasin B-block method; assay type: toxicity, cell-based
[19] = system: PBL; test: Genotoxicity in human PBL assessed as induction of micronuclei at 500 ug/ml in absence of rat liver S9 fraction by cytochalasin B-block method; assay type: toxicity, cell-based
[20] = molecular target: Cytochrome P450 3A4 (Homo sapiens, UniProt P08684); test: Inhibition of CYP3A4 (unknown origin); assay type: ADME
[21] = molecular target: Cytochrome P450 1A2 (Homo sapiens, UniProt P05177); test: Inhibition of CYP1A2 (unknown origin); assay type: ADME
[22] = molecular target: Cytochrome P450 2C19 (Homo sapiens, UniProt P33261); test: Inhibition of CYP2C19 (unknown origin); assay type: ADME
[23] = molecular target: Cytochrome P450 2D6 (Homo sapiens, UniProt P10635); test: Inhibition of CYP2D6 (unknown origin); assay type: ADME
[24] = molecular target: Cytochrome P450 2C9 (Homo sapiens, UniProt P11712); test: Inhibition of CYP2C9 (unknown origin); assay type: ADME
[25] = molecular target: LTK (Homo sapiens, UniProt P29376); test: Inhibition of recombinant human cytoplasmic GST-tagged LTK expressed in baculovirus at 1 uM by Z'-LYTE assay
[26] = system: Rattus norvegicus; test: Antiinflammatory activity in po dosed Lewis rat collagen-induced arthritis model assessed as reduction in ankle thickness administered qd for 16 days; assay type: functional, organism-based
[27] = system: Rattus norvegicus; test: Antiinflammatory activity in Lewis rat collagen-induced arthritis model assessed as reduction in ankle diameter AUC at 4 mg/kg, po administered qd for 16 days relative to control; assay type: functional; details: 384 h
[28] = system: Rattus norvegicus; test: Antiinflammatory activity in Lewis rat collagen-induced arthritis model assessed as reduction in ankle diameter AUC at 0.125 mg/kg, po administered bid for 16 days relative to control; assay type: functional; details: 384 h
[29] = system: Rattus norvegicus; test: Time at which plasma concentration stays above in vitro IC90 for BTK autophosphorylation at Y223 in rat whole blood in Lewis rat collagen-induced arthritis model at 1 to 16 mg/kg, po qd measured during 24 hrs dosing
[30] = system: Rattus norvegicus; test: Time at which plasma concentration stays above in vitro IC50 for BTK autophosphorylation at Y223 in rat whole blood in Lewis rat collagen-induced arthritis modelt at 0.125 to 2 mg/kg, po bid measured during 12 hrs dosing
[31] = system: Rattus norvegicus; test: Time at which plasma concentration stays above in vitro IC70 for BTK autophosphorylation at Y223 in rat whole blood in Lewis rat collagen-induced arthritis model at 0.125 to 2 mg/kg, po bid measured during 12 hrs dosing
[32] = system: Rattus norvegicus; test: Time at which plasma concentration stays above in vitro IC70 for BTK autophosphorylation at Y223 in rat whole blood in Lewis rat collagen-induced arthritis model at 1 mg/kg, po bid measured during 24 hrs dosing
[33] = system: Rattus norvegicus; test: Antiinflammatory activity in Lewis rat collagen-induced arthritis model assessed as reduction in ankle cartilage damage at 0.06 to 16 mg/kg, po administered qd for 16 days; assay type: functional, organism-based
[34] = system: Rattus norvegicus; test: Antiinflammatory activity in Lewis rat collagen-induced arthritis model assessed as reduction in bone resorption at 0.06 to 16 mg/kg, po administered qd for 16 days; assay type: functional, organism-based
[35] = system: Rattus norvegicus; test: Antiinflammatory activity in Lewis rat collagen-induced arthritis model assessed as reduction in ankle pannus at 0.125 to 2 mg/kg, po administered bid for 16 days; assay type: functional, organism-based
[36] = system: Rattus norvegicus; test: Antiinflammatory activity in Lewis rat collagen-induced arthritis model assessed as reduction in ankle cartilage damage at 0.125 to 2 mg/kg, po administered bid for 16 days; assay type: functional, organism-based
[37] = Clearance in human liver microsomes at 1 uM incubated up to 60 mins by LC-MS/MS method; assay type: ADME, microsome

Cav1.2, sequence (Q13936 whole entry): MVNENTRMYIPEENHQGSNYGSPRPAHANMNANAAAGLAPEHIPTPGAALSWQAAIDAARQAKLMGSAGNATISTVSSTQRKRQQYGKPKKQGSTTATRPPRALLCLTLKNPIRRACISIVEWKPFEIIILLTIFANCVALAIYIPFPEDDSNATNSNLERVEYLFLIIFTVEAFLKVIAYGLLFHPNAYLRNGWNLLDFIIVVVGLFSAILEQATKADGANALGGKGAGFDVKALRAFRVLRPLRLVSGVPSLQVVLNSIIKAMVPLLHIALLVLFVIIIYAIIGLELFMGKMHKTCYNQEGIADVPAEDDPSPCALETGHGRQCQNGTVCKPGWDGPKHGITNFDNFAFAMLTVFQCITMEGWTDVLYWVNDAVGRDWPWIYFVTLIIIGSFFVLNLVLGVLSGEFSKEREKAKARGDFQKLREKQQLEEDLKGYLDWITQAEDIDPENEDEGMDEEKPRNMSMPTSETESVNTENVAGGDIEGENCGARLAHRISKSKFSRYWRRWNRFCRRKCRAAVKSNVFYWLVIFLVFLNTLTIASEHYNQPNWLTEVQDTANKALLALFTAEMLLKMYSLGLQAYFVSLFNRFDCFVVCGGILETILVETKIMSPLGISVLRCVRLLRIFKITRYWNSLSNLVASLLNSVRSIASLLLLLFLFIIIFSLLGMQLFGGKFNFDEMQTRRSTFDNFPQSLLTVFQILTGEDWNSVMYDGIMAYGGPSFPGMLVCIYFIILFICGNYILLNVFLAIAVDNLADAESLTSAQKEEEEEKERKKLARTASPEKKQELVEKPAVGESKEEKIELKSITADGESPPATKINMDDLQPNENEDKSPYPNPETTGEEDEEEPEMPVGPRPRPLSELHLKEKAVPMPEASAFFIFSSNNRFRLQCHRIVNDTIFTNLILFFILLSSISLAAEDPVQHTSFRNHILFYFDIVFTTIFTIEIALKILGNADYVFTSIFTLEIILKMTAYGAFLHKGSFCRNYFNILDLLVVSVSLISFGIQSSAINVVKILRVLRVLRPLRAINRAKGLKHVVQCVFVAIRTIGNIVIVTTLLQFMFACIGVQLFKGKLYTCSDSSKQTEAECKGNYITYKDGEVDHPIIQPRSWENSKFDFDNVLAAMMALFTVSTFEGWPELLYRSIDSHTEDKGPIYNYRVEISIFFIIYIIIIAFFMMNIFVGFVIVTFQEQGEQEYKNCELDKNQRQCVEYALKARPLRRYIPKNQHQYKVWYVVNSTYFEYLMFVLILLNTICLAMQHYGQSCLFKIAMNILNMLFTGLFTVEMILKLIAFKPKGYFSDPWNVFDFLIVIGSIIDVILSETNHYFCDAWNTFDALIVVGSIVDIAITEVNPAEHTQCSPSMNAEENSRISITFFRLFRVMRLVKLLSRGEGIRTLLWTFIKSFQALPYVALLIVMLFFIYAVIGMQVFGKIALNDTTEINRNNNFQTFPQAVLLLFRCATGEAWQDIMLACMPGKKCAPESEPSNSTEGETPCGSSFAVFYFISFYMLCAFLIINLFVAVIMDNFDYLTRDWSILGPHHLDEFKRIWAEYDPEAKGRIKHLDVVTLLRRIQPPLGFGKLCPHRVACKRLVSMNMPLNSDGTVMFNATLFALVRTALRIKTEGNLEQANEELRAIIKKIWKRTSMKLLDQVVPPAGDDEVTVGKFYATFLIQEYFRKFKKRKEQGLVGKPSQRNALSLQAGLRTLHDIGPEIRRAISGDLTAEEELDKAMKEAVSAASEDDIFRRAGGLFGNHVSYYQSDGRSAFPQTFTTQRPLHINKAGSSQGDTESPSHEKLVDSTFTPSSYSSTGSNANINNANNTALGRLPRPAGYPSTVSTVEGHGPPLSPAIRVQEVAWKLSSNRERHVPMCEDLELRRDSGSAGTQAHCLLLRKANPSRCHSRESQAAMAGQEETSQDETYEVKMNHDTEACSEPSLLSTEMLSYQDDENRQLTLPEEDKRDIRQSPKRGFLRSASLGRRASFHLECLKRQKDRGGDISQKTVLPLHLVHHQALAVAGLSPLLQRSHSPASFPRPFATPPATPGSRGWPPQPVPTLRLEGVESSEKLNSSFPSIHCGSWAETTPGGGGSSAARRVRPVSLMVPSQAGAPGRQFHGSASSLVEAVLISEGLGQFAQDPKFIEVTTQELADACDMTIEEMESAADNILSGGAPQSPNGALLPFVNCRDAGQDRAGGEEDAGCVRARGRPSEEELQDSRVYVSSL
Nav1.5, sequence (Q14524 whole entry): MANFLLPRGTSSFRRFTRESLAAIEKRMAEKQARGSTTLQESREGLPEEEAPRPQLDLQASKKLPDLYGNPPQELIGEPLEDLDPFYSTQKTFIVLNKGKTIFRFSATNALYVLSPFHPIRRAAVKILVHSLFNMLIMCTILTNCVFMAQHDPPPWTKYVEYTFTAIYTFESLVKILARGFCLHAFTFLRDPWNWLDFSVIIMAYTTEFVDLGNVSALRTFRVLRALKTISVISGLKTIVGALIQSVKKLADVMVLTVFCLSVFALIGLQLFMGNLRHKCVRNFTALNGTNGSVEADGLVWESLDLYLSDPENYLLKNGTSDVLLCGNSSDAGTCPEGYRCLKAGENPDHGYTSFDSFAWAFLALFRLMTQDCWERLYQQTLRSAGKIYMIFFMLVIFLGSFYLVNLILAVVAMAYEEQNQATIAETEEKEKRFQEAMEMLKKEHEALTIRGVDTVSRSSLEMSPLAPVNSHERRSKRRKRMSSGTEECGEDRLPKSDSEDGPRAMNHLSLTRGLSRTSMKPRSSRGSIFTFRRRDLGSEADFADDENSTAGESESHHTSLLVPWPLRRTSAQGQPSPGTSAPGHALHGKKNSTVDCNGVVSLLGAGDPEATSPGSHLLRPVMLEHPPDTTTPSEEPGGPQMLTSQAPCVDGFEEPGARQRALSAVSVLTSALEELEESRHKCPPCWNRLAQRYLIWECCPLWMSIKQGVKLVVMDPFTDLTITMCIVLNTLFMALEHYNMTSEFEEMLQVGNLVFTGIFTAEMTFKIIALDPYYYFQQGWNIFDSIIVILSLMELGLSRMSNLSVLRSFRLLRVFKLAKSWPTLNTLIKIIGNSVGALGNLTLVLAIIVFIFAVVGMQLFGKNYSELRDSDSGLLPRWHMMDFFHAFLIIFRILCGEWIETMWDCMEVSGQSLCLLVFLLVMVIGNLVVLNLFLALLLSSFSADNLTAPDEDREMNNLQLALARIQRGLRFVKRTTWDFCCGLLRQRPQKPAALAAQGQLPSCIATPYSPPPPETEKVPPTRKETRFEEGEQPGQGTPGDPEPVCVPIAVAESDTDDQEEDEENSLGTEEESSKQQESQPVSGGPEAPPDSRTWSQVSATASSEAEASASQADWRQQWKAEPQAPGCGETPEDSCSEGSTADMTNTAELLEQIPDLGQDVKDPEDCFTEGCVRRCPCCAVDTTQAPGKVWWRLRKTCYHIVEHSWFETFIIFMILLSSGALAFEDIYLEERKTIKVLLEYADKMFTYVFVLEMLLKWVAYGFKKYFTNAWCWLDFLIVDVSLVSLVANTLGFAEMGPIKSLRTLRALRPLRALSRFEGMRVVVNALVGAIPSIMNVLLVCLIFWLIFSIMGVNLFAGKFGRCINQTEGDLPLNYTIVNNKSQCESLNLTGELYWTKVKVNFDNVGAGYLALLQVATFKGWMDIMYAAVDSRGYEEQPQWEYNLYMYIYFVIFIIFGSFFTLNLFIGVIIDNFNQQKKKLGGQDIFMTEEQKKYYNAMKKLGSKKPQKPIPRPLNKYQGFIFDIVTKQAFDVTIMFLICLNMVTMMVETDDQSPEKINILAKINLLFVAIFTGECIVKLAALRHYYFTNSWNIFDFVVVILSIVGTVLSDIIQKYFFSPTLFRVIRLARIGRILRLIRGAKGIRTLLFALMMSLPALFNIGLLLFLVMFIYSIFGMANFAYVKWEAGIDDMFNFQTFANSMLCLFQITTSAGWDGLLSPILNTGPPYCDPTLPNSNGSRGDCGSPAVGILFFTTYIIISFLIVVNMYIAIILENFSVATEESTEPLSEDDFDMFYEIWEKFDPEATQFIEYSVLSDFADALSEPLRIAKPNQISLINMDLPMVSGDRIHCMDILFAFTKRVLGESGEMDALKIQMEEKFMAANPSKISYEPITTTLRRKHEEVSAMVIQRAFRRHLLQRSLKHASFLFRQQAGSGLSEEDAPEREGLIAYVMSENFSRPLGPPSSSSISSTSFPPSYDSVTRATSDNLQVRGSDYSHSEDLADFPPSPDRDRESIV
Cytochrome P450 2C9, sequence (P11712 whole entry): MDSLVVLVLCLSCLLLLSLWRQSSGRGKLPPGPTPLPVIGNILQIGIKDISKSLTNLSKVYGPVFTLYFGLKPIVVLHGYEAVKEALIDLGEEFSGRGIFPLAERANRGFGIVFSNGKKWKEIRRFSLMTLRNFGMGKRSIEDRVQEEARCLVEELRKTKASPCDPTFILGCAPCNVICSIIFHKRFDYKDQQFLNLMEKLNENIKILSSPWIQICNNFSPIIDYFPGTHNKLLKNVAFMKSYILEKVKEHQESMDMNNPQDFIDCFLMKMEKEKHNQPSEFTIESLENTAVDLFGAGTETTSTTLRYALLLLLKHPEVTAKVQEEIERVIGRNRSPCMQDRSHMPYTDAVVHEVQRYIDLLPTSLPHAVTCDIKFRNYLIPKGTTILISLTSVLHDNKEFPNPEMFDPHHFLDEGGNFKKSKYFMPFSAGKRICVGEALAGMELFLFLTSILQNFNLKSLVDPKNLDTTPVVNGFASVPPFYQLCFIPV

- inhibition at 1 µM [1]: -1%
- bioavailability [3]: 65.1%
- Papp A→B [5]: 151 nm/s
- clearance [6]: 1.64 L/h/kg
- Vd [7]: 5.42 L/kg
- half-life [8]: 2.2 h
- IC50 [20]: > 5 µM
- IC50 [21]: > 5 µM
- IC50 [22]: > 5 µM
- IC50 [23]: > 5 µM
- IC50 [24]: > 5 µM
- inhibition at 1 µM [25]: -1%
- CLhep predicted at 1 µM [37]: 0.564 L/h/kg
SMILES: C[C@H]1CN(C2COC2)CCN1c1ccc(Nc2cc(-c3ccnc(N4CCn5c(cc6c5CC(C)(C)C6)C4=O)c3CO)cn(C)c2=O)nc1 [FENEBRUTINIB]
- Activity [2]: Non-Toxic
- IC50 [4]: > 300 µM
- inhibition at 1 µM [9]: 0.6%
- inhibition at 10 µM [10]: 3.8%
- Activity [11]: Non-Toxic
- Activity [12]: Non-Toxic
- Activity [13]: Non-Toxic
- Activity [14]: Non-Toxic
- Activity [15]: Non-Toxic
- Activity [16]: Non-Toxic
- Activity [17]: Non-Toxic
- Activity [18]: Non-Toxic
- Activity [19]: Non-Toxic
- Activity [26]: Dose-dependent effect
- inhibition in vivo at 4 mg/kg [27]: 89%
- inhibition in vivo at 0.125 mg/kg [28]: 50%
- Time [29]: 12 h
- Time [30]: 6 h
- Time [31]: 6 h
- Time [32]: 12 h
- Activity [33]: Active
- Activity [34]: Active
- Activity [35]: Active
- Activity [36]: Active
